Measured values reported in US12171744B2, “Pharmaceutical combinations for the treatment of cancer” (Presage Biosciences, Inc., priority 2016, dated 2024).

Legend:
[1] = test system: 38 different kinases; assay: Comparison of inhibition profiles on 38 different kinases; assay type: biochemical; conditions: compared with flavopiradol
[2] = test system: Ramos Burkitt's lymphoma cells; assay: CIVO microinjection, cleaved caspase-3 staining; assay type: in vivo, mice; conditions: marker of apoptosis
Experimental: Mice were enrolled into CIVO drug studies when the tumor volume reached approximately 1000 mm^3. Microinjection studies were performed using the CIVO device as previously described (Klinghoffer et al, Science Translational Medicine 2015) The device was configured with 6 injection needles set for a 6 mm injection length and a total volume delivery of 3 μl. A fluorescent tracking marker (FTM) was added to each drug reservoir in vehicle for delivery along with each drug or drug combination. All micro-doses were equivalent to or lower than what would be allowed under FDA guidelines for Exploratory IND (Investigational New Drug) studies and by solubility of drug into vehicle. Total amounts of agents injected are tabulated below in Table 4.
FIGS. 5A-5D show Ramos Burkitt's lymphoma cells stained for cleaved caspase-3 (CC3) (shown in red) as a marker of apoptosis.

[3] = test system: U2932 model of DLBCL; assay: Western blot of treated cells; assay type: cell-based; conditions: increasing concentration of voruciclib, single agent
Experimental: Cell lines shown in Table 1, adherent or suspension, were treated in 6-well dishes or T10 flasks respectively, seeded at one million per ml density prior to treatment in total volumes of 3-10 ml. All agents used for in vitro cell treatments were formulated in water/DMSO to achieve required concentrations (as stated in respective figure labels/legends) with DMSO concentrations not exceeding 0.01%. Drug sources are indicated in table under ‘CIVO microinjection studies’. Cells were harvested at experimental time points: 2, 6, or 24 hours post treatment as indicated in respective figures, first by washing cells twice in ice-cold PBS in 15 ml falcon tubes, centrifugation at 1000 rpm for 5 mins followed by lysis of the respective cell pellets as described in section below. Note: Drug resistant NUDHL1 Dox 1000 nM and Toledo Dox 1000 nM cell lines were generated at Presage by culturing parental lines in media with stepwise increments in Doxorubicin concentration over several passages. […]
Protein lysates were prepared by adding ice-cold 1×RIPA Buffer (from 10×, Millipore) with 1×-3× Halt protease and phosphatase inhibitor cocktail (100×, Pierce) to cell pellets, followed by pulse sonication (˜3-5 secs) three times. […] Protein samples were quantified using Bradford assay (Biorad) at 1:10 or higher dilutions using appropriate blank controls with 1×RIPA. […]

[4] = test system: NUDHL1 model of DLBCL; assay: Xenograft tumor growth; assay type: in vivo, NOD SCID mice; conditions: Voruciclib 200 mpk, Venetoclax 50 mpk
Experimental: Immune deficient NOD SCID mice were implanted with the NUDHL1 model of DLBCL. The xenografted tumors were allowed to grow in the NOD SCID host until they reached 200 mm^3, at which point the xenografted animals were randomized into 4 study groups: 1. Vehicle control; 2. […] Venetoclax at 50 mpk; and 4. […] Venetoclax was dosed by oral gavage on days 1 and 4 of each weekly cycle. Drug effects were assessed via tumor volume measurements twice weekly by a technician blinded to the treatment of each subject in the study. N=5-6 animals per treatment arm.

[5] = test system: SKM1 AML xenografts; assay: Xenograft tumor growth; assay type: in vivo, NOD SCID; conditions: Voruciclib 200 mpk PO, ABT 199 10 mpk PO, 6 on/1 off; by day 22
Experimental: (§2) Mice were enrolled for study when tumors reached an average volume of 150-200 mm^3. Tumor volume was calculated as V=length×width×height, all three dimensions measured using digital calipers along with body weight. Animals were removed from the study when—any one of the three measured dimensions of the tumor exceeding 2 cm, volume exceeding 2500 mm^3, ulceration or body weight loss greater than 20%.

[6] = biological target: T1, CDK1 (Homo sapiens, UniProt P06493); assay: Kinase inhibition profiling (filter binding assay with γ-33P-ATP); assay type: biochemical
T1 construct: purchased Reaction Biology Corp. (testing facility)
Experimental: (§1) For each kinase, an IC50 value were calculated from a 10-point concentration curve of the test article and converted to Ki values.

[7] = biological target: T2, CDK6 (Homo sapiens, UniProt Q00534); assay: as above; assay type: biochemical
T2 construct: purchased Reaction Biology Corp. (testing facility)
Experimental: as §1

[8] = biological target: T3, CDK4 (Homo sapiens, UniProt P11802); assay: as above; assay type: biochemical
T3 construct: purchased Reaction Biology Corp. (testing facility)
Experimental: as §1

[9] = Body weight in HCC1187 TNBC mouse model; conditions: in vivo
Experimental: as §2

[10] = test system: HCC1187 cells; assay: PCR assay of XBP1 transcription; assay type: cell-based; conditions: Voruciclib 1.5 uM, Bortezomib 10 nM, 4 hours
Experimental: 1 ug of mRNA from each condition was used to generate cDNA using the High Capacity cDNA Reverse Transcription Kit (Applied Biosystems) and manufacturer's protocol. 100 ng cDNA was used to conduct a PCR assay to amplify XBP1 u or splice forms (Thermofisher PCR Supermix)—94 deg C. for 2 mins, (94 deg C. for 15 secs, 55 deg C. for 30 secs, 72 deg C. for 1 min)×30 cycles, 72 deg C. for 7 mins, hold at 4 deg C. XBP1 spiced and unspliced variants were detected.

T3 sequence (P11802 whole entry): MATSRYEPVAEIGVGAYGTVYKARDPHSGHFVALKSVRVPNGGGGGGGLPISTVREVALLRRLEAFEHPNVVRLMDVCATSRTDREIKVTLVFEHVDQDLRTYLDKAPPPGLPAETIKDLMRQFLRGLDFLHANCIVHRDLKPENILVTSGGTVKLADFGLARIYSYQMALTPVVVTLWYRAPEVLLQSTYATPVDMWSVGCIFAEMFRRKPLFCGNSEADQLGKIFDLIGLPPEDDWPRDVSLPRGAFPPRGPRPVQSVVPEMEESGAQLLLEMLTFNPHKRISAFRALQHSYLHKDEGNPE
T3 sequence (P24385 whole entry partner): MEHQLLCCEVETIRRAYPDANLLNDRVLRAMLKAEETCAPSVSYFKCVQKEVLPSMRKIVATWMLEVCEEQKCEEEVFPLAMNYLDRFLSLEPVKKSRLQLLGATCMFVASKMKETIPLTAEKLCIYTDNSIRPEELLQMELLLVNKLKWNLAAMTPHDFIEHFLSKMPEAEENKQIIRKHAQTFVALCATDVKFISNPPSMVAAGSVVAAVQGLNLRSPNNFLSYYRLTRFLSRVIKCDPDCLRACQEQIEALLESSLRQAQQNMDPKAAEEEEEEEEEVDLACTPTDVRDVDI
T2 sequence (Q00534 whole entry): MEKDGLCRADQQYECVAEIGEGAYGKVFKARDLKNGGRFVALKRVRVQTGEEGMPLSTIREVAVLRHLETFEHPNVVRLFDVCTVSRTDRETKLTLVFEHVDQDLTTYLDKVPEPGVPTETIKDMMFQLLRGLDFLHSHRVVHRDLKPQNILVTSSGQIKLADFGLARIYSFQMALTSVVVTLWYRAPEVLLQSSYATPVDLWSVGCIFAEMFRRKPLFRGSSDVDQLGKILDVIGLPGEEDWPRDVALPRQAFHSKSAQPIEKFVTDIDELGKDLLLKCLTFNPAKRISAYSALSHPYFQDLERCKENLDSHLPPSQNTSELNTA
T2 sequence (P24385 whole entry partner): as the sequence (P24385 whole entry partner) above
T1 sequence (P06493 whole entry): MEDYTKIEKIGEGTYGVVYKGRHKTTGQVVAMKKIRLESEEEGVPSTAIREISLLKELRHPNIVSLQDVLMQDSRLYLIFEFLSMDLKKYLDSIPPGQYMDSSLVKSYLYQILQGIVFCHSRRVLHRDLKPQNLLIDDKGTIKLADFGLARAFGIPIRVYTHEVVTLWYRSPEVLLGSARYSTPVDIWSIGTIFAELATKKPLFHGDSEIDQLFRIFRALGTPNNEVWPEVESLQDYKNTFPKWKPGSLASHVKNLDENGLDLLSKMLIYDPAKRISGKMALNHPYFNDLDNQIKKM
T1 sequence (P14635 whole entry partner): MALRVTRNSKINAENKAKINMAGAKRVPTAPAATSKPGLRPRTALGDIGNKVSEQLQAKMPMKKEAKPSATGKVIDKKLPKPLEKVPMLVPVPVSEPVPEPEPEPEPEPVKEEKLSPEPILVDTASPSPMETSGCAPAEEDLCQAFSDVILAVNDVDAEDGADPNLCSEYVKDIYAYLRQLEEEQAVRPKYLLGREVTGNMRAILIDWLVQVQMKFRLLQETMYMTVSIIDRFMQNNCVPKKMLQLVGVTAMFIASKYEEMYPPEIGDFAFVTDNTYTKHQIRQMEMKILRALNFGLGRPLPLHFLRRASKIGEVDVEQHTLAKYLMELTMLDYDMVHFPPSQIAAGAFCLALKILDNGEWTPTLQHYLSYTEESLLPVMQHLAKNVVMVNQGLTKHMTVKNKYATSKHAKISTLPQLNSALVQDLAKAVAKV

- potency [6]: single digit
- potency [7]: single digit
- potency [8]: single digit
Compound: CN1CC[C@@H](c2c(O)cc(O)c3c(=O)cc(-c4ccc(C(F)(F)F)cc4Cl)oc23)[C@@H]1CO (relative stereo) [voruciclib, (+)-trans-2-(2-Chloro-4-trifluoromethylphenyl)-5,7-dihydroxy-8-(2-hydroxymethyl-1-methylpyrrolidin-3-yl)-chromen-4-one]
- specificity for CDKs [1]: more specific for CDKs than flavopiradol
- expression of CC3 [2]: slight increase
- MCL-1 [3]: suppresses
- apoptosis (cPARP) [3]: increases as the concentration of voruciclib increases
- tumor size (images) [4]: smaller
- normalized tumor volume [5]: slightly lower
- body weight of mice [9]: unaffected
- bortezomib-induced transcriptional induction of XBP1 [10]: decreased
